# Results published in patent US20050124021A1 (priority 2000, published 2005).
# Legend:
# [1] = tested on: M. smegmatis strain 49::H37Rv A18
# Rv1170 [2] = target: T1, Rv1170 (Mycobacterium tuberculosis, UniProt P9WJN3); format: biochemical, M. tuberculosis
# Rv1170 [3] = target: T1, Rv1170; format: biochemical, M. tuberculosis; remark: listed apart in the source
# T1 sequence (P9WJN3 whole entry, looked up): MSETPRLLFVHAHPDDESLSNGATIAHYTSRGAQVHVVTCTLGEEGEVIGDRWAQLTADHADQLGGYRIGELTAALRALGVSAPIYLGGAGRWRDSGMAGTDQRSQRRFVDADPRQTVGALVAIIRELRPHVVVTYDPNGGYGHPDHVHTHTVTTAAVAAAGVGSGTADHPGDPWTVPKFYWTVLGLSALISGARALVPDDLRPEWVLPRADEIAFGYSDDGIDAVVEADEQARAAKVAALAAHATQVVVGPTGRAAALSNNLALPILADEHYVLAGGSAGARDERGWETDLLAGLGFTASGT
Structure (SMILES),Reduction of the peroxide sensitivity of mutant 49 [1],"Activity, amidase cleavage (analysis for AcCySmB or AcCys) (Rv1170 [2])","Activity, deacetylase reaction (analysis for amine / deacetylase product) (Rv1170 [3])",Deacetylated by the invention deacetylase (Rv1170 [3]),Decrease in reactivity versus GlcNAc-Ins (removal of inositol residue) (Rv1170 [3])
"OO [H2O2, hydrogen peroxide]",by a factor of two,,,,
"CC(=O)N[C@@H](CS)C(=O)N[C@H]1[C@@H](OC2[C@H](O)[C@H](O)C(O)[C@H](O)[C@H]2O)O[C@H](CO)[C@@H](O)[C@@H]1O (stereo partly drawn) [MSH, 1-D-myo-inosityl-2-(N-acetylcysteinyl)amido-2-deoxy-α-D-glucopyranoside]",,0.002 ± 0.001 nmol min^−1 mg of protein^−1,<10^−4 nmol min^−1 mg of protein^−1,neither MSH nor MSmB is deacetylated,
"CC(=O)N[C@H]1C(O)O[C@H](CO)[C@@H](O)[C@@H]1O (stereo partly drawn) [GlcNAc, N-acetylglucosamine]",,,0.087 ± 0.005 nmol min^−1 mg of protein^−1,,more than 300 fold
